Source: patent US20260097135A1, “MODIFIED ONCOLYTIC HERPES SIMPLEX VIRUS (oHSV) AND METHODS OF USE THEREOF” (The General Hospital Corporation, priority 2022, published 2026)
Entries after “also recorded” stand apart in the source; their conditions may differ.

Test system: human NK cell line NK-92MI
Test: hIL-12 bioactivity: IFN-γ production by NK-92MI cells (ELISA)
Type: cell-based
Description: HIL12 levels were measured with the human p70 Quantikine ELISA kit (R&D Systems, Bio-Techne, Minneapolis, MN). Functional hIL12 was assessed using human NK cell line NK-92MI (ATCC (CRL-2408)) and hIL-12 induced IFN-γ production. Recombinant hIL12 (R-hIL12; R&D Systems) with known functional activity was used as a positive control. NK-92MI cells were seeded in a 48-well plate at 2×10^4 cells/well. hIL12 produced by virus-infected cells 64 hpi or R-hIL12 was added to NK-92MI cell cultures at the indicated concentrations (with or without 10 μg/ml heparin). HIL12-dependent secretion of IFN-γ into the supernatant was quantified after 24 hrs via ELISA (Human IFN-gamma Quantikine ELISA Kits (R&D systems)).

Molecule	effect of heparin on hIL-12-induced IFN-γ (heparin 10 μg/ml)	hIL-12 induced IFN-γ production by NK-92MI cells (hIL-12 from infected Vero supernatants (64 hpi) or recombinant, 24 hrs)
heparin	greatly enhanced the activity of hIL12; also recorded: synergizes with hIL-12 in stimulating hIFNγ production	–
R-hIL12: recombinant hIL12 (R&D Systems) with known functional activity, positive control (protein, UniProt P29459 23-219; P29460 23-328, looked up) Interleukin-12 subunit alpha: RNLPVATPDPGMFPCLHHSQNLLRAVSNMLQKARQTLEFYPCTSEEIDHEDITKDKTSTVEACLPLELTKNESCLNSRETSFITNGSCLASRKTSFMMALCLSSIYEDLKMYQVEFKTMNAKLLMDPKRQIFLDQNMLAVIDELMQALNFNSETVPQKSSLEEPDFYKTKIKLCILLHAFRIRAVTIDRVMSYLNAS Interleukin-12 subunit beta: IWELKKDVYVVELDWYPDAPGEMVVLTCDTPEEDGITWTLDQSSEVLGSGKTLTIQVKEFGDAGQYTCHKGGEVLSHSLLLLHKKEDGIWSTDILKDQKEPKNKTFLRCEAKNYSGRFTCWWLTTISTDLTFSVKSSRGSSDPQGVTCGAATLSAERVRGDNKEYEYSVECQEDSACPAAEESLPIEVMVDAVHKLKYENYTSSFFIRDIIKPDPPKNLQLKPLKNSRQVEVSWEYPDTWSTPHSYFSLTFCVQVQGKSKREKKDRVFTDKTSATVICRKNASISVRAQDRYYSSSWSEWASVPCS	–	dose-dependent manner
